Target: Acetylcholinesterase (Electrophorus electricus, UniProt O42275)
Sequence (O42275 whole entry): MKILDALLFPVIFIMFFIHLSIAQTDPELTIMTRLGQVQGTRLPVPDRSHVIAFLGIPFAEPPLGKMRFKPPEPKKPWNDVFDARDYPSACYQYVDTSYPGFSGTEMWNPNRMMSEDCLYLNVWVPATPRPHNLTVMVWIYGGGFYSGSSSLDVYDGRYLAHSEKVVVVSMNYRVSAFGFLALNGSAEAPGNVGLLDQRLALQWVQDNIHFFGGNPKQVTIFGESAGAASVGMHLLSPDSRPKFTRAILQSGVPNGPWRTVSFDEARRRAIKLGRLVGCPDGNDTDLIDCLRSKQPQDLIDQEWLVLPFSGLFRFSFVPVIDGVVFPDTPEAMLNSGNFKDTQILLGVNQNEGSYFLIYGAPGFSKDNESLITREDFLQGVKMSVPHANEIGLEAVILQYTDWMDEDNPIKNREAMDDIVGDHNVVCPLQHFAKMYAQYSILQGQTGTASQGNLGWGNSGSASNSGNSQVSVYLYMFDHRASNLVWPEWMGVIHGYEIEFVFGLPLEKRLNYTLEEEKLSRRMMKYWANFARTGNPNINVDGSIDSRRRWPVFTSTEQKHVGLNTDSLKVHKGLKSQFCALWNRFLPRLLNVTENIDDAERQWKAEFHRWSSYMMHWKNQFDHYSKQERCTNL
Description: Inhibition of Electrophorus electricus acetylcholinesterase using acetylthiocholineiodide as substrate measured at 30 secs intervals over 9 mins by Ellman's colorimetric assay

| SMILES | IC50 |
| --- | --- |
| C#Cc1ccc(OC(=O)OCCC(C)(C)C)cc1 | 59 µM |
| C#Cc1ccc(NC(=O)OCC[Si](C)(C)C)cc1 | 34.4 µM |

— ChEMBL document CHEMBL3632557, “Ethynylphenyl carbonates and carbamates as dual-action acetylcholinesterase inhibitors and anti-inflammatory agents” (Bioorg Med Chem Lett, 2015)
